Assay results: PubChem BioAssay (NCI)
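Five concentrations, 48 hours, 96-well plates. GI50 marks 50% less growth. TGI denotes the concentration required for complete inhibition of growth.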

How the values were obtained:
Test in all cases: NCI-60 cell line screen, 48 h
SK-MEL-2 melanoma = tested on: SK-MEL-2 melanoma
T-47D breast = tested on: T-47D breast
HCT-116 colon = tested on: HCT-116 colon
COLO 205 colon = tested on: COLO 205 colon
ACHN renal = tested on: ACHN renal
PC-3 prostate = tested on: PC-3 prostate
OVCAR-4 ovarian = tested on: OVCAR-4 ovarian
MALME-3M melanoma = tested on: MALME-3M melanoma
CCRF-CEM leukemia = tested on: CCRF-CEM leukemia
KM12 colon = tested on: KM12 colon
K-562 leukemia = tested on: K-562 leukemia
HCC-2998 colon = tested on: HCC-2998 colon
SR leukemia = tested on: SR leukemia
A549 NSCLC = tested on: A549 NSCLC
MOLT-4 leukemia = tested on: MOLT-4 leukemia
NCI-H226 lung = tested on: NCI-H226 lung
SN12C renal = tested on: SN12C renal
HL-60(TB) leukemia = tested on: HL-60(TB) leukemia
SF-268 CNS = tested on: SF-268 CNS
OVCAR-5 ovarian = tested on: OVCAR-5 ovarian
TK-10 renal = tested on: TK-10 renal
SK-MEL-28 melanoma = tested on: SK-MEL-28 melanoma
HOP-62 NSCLC = tested on: HOP-62 NSCLC
OVCAR-8 ovarian = tested on: OVCAR-8 ovarian
MCF7 breast = tested on: MCF7 breast
SK-MEL-5 melanoma = tested on: SK-MEL-5 melanoma
RXF 393 renal = tested on: RXF 393 renal
NCI-H460 lung = tested on: NCI-H460 lung
MDA-MB-231 breast = tested on: MDA-MB-231 breast
SW-620 colon = tested on: SW-620 colon
CAKI-1 renal = tested on: CAKI-1 renal
NCI-H23 lung = tested on: NCI-H23 lung
IGROV1 ovarian = tested on: IGROV1 ovarian
HCT-15 colon = tested on: HCT-15 colon
786-0 renal = tested on: 786-0 renal
DU-145 prostate = tested on: DU-145 prostate
HT29 colon = tested on: HT29 colon
NCI-H522 lung = tested on: NCI-H522 lung
UACC-62 melanoma = tested on: UACC-62 melanoma
OVCAR-3 ovarian = tested on: OVCAR-3 ovarian
A498 renal = tested on: A498 renal
RPMI-8226 leukemia = tested on: RPMI-8226 leukemia
UACC-257 melanoma = tested on: UACC-257 melanoma
HOP-92 NSCLC = tested on: HOP-92 NSCLC
M14 melanoma = tested on: M14 melanoma
BT-549 breast = tested on: BT-549 breast
U251 CNS = tested on: U251 CNS
EKVX NSCLC = tested on: EKVX NSCLC
UO-31 renal = tested on: UO-31 renal
SK-OV-3 ovarian = tested on: SK-OV-3 ovarian
LOX IMVI melanoma = tested on: LOX IMVI melanoma
NCI/ADR-RES ovarian = tested on: NCI/ADR-RES ovarian
SF-539 CNS = tested on: SF-539 CNS
SNB-19 CNS = tested on: SNB-19 CNS
SNB-75 CNS = tested on: SNB-75 CNS
MDA-MB-435 = tested on: MDA-MB-435
HS 578T breast = tested on: HS 578T breast
SF-295 CNS = tested on: SF-295 CNS

O=C(/C=C/c1cccnc1)c1ccccc1O
GI50 (SK-MEL-2 melanoma): 22.8 µM
TGI (SK-MEL-2 melanoma): 62.2 µM
GI50 (T-47D breast): 21 µM
TGI (T-47D breast): > 100 µM
GI50 (HCT-116 colon): 16.8 µM
TGI (HCT-116 colon): 34.9 µM
GI50 (COLO 205 colon): 14.6 µM
TGI (COLO 205 colon): 30.1 µM
GI50 (ACHN renal): 16.7 µM
TGI (ACHN renal): 37.6 µM
GI50 (PC-3 prostate): 21.9 µM
TGI (PC-3 prostate): 66.8 µM
GI50 (OVCAR-4 ovarian): 29.5 µM
TGI (OVCAR-4 ovarian): > 100 µM
GI50 (MALME-3M melanoma): 22.2 µM
TGI (MALME-3M melanoma): 62.9 µM
GI50 (CCRF-CEM leukemia): 22.7 µM
TGI (CCRF-CEM leukemia): > 100 µM
GI50 (KM12 colon): 32.2 µM
TGI (KM12 colon): > 100 µM
GI50 (K-562 leukemia): 20.9 µM
TGI (K-562 leukemia): 80 µM
GI50 (HCC-2998 colon): 16.2 µM
TGI (HCC-2998 colon): 30 µM
GI50 (SR leukemia): 12.3 µM
TGI (SR leukemia): 64.6 µM
GI50 (A549 NSCLC): 37.1 µM
TGI (A549 NSCLC): > 100 µM
GI50 (MOLT-4 leukemia): 23 µM
TGI (MOLT-4 leukemia): 73.5 µM
GI50 (NCI-H226 lung): 20 µM
TGI (NCI-H226 lung): 51.7 µM
GI50 (SN12C renal): 24.4 µM
TGI (SN12C renal): 81.9 µM
GI50 (HL-60(TB) leukemia): 18.1 µM
TGI (HL-60(TB) leukemia): 43 µM
GI50 (SF-268 CNS): 26.9 µM
TGI (SF-268 CNS): 97.6 µM
GI50 (OVCAR-5 ovarian): 19 µM
TGI (OVCAR-5 ovarian): 46.7 µM
GI50 (TK-10 renal): 27.6 µM
TGI (TK-10 renal): > 100 µM
GI50 (SK-MEL-28 melanoma): 24.1 µM
TGI (SK-MEL-28 melanoma): 72.3 µM
GI50 (HOP-62 NSCLC): 17.5 µM
TGI (HOP-62 NSCLC): 45.5 µM
GI50 (OVCAR-8 ovarian): 31.5 µM
TGI (OVCAR-8 ovarian): > 100 µM
GI50 (MCF7 breast): 32.3 µM
TGI (MCF7 breast): > 100 µM
GI50 (SK-MEL-5 melanoma): 16.1 µM
TGI (SK-MEL-5 melanoma): 31.1 µM
GI50 (RXF 393 renal): 13.8 µM
TGI (RXF 393 renal): 27.3 µM
GI50 (NCI-H460 lung): 30.8 µM
TGI (NCI-H460 lung): > 100 µM
GI50 (MDA-MB-231 breast): 17.7 µM
TGI (MDA-MB-231 breast): 46.7 µM
GI50 (SW-620 colon): 22.5 µM
TGI (SW-620 colon): 63.2 µM
GI50 (CAKI-1 renal): 17.3 µM
TGI (CAKI-1 renal): 42.4 µM
GI50 (NCI-H23 lung): 16.9 µM
TGI (NCI-H23 lung): 36 µM
GI50 (IGROV1 ovarian): 20.1 µM
TGI (IGROV1 ovarian): 50 µM
GI50 (HCT-15 colon): 15.6 µM
TGI (HCT-15 colon): 41 µM
GI50 (786-0 renal): 17.2 µM
TGI (786-0 renal): 31.8 µM
GI50 (DU-145 prostate): 16 µM
TGI (DU-145 prostate): 31.6 µM
GI50 (HT29 colon): 21.4 µM
TGI (HT29 colon): 58.7 µM
GI50 (NCI-H522 lung): 16.6 µM
TGI (NCI-H522 lung): 48.7 µM
GI50 (UACC-62 melanoma): 16.2 µM
TGI (UACC-62 melanoma): 35.3 µM
GI50 (OVCAR-3 ovarian): 20.5 µM
TGI (OVCAR-3 ovarian): 55.2 µM
GI50 (A498 renal): 15.2 µM
TGI (A498 renal): 31.4 µM
GI50 (RPMI-8226 leukemia): 12.9 µM
TGI (RPMI-8226 leukemia): 39 µM
GI50 (UACC-257 melanoma): 25.4 µM
TGI (UACC-257 melanoma): 60.3 µM
GI50 (HOP-92 NSCLC): 10.4 µM
TGI (HOP-92 NSCLC): 32.5 µM
GI50 (M14 melanoma): 16.9 µM
TGI (M14 melanoma): 34.1 µM
GI50 (BT-549 breast): 14.2 µM
TGI (BT-549 breast): 28.5 µM
GI50 (U251 CNS): 22.2 µM
TGI (U251 CNS): 81.1 µM
GI50 (EKVX NSCLC): 34.7 µM
TGI (EKVX NSCLC): > 100 µM
GI50 (UO-31 renal): 13.4 µM
TGI (UO-31 renal): 28.9 µM
GI50 (SK-OV-3 ovarian): 33.7 µM
TGI (SK-OV-3 ovarian): > 100 µM
GI50 (LOX IMVI melanoma): 14.4 µM
TGI (LOX IMVI melanoma): 30.8 µM
GI50 (NCI/ADR-RES ovarian): 24.6 µM
TGI (NCI/ADR-RES ovarian): > 100 µM
GI50 (SF-539 CNS): 14.4 µM
TGI (SF-539 CNS): 34.7 µM
GI50 (SNB-19 CNS): 20.3 µM
TGI (SNB-19 CNS): 62.5 µM
GI50 (SNB-75 CNS): 16.5 µM
TGI (SNB-75 CNS): 59.1 µM
GI50 (MDA-MB-435): 16.4 µM
TGI (MDA-MB-435): 37 µM
GI50 (HS 578T breast): 35.9 µM
TGI (HS 578T breast): > 100 µM
GI50 (SF-295 CNS): 16.6 µM
TGI (SF-295 CNS): 41.7 µM
